The values that follow are results of earlier work, collected in patent US20110177168A1, “COMPOSITION” (SmithKline Beecham Limited, priority 2000, published 2011).

Setting [1] is: oral doses of conventional immediate release tablets.

A word on the bioavailability: it is the share of a dose that reaches the circulation, judged against a reference dose that is usually intravenous. With `CC(=O)Nc1ccc(O)cc1` [paracetamol, N-acetyl-p-aminophenol], under setting [1], the bioavailability is 80% and the tmax is 0.5 to 1.5 h. Further, where the note is “reported”, the elimination half-life was 1.9 to 2.5 h.
